Reference: paper PMC4728427, “Mechanism of allosteric activation of TMEM16A/ANO1 channels by a commonly used chloride channel blocker” (British Journal of Pharmacology, 2016)
Where two headings read alike, the source gives them in different places.

Target: T1, Mouse TMEM16A (Mus musculus, UniProt Q8BHY3)
T1 construct: expressed in transfected cells; host or cells: HEK-293T
T1 sequence (Q8BHY3 1-960): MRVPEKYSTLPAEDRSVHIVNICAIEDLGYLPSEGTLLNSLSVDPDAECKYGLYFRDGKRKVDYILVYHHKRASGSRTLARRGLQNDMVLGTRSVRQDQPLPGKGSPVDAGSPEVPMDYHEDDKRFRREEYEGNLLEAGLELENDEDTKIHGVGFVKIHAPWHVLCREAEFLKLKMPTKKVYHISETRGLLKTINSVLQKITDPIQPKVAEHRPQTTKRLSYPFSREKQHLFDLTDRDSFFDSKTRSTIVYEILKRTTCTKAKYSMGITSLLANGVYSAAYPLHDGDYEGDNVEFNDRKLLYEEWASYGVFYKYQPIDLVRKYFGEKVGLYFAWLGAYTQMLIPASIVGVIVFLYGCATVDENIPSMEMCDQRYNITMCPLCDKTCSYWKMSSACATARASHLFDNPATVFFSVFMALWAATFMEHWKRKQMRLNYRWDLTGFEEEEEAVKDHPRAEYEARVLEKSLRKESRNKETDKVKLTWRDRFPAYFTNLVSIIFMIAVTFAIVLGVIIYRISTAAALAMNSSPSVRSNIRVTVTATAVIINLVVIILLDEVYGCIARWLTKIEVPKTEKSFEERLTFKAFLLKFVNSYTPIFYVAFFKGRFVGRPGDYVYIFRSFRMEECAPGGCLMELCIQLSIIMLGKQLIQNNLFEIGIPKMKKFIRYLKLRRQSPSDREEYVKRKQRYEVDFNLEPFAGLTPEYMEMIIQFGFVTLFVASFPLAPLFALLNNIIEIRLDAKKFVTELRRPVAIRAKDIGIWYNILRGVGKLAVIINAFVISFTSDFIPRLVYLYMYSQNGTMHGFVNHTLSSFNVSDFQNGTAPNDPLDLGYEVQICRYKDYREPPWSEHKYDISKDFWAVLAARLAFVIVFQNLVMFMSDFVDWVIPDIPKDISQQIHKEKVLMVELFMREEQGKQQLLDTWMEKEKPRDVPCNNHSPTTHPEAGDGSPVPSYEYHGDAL
Assay: Time-course of current block analysed by Langmuir formalism (kon, koff), 12.5 μM [Ca2+]i
Assay type: cell-based
Conditions: for Ki: read-out: Ki calculated as koff/kon
Description: To investigate the precise mechanism by which extracellular A9C inhibits TMEM16A channels, macroscopic whole‐cell currents were recorded in the presence of 12.5 μM [Ca^2+]i and in response to 250 ms steps to various V m test pulse from a holding V m of −70 mV. The negative holding V m was used to prevent channel block before the test pulse was elicited. […] The time‐course of this decrease was described by a single‐exponential function characterized by a time constant τ B. The extent of the decrease in current was measured for various [A9C]ext and various V m test pulse and then plotted relative to the current measured in the absence of A9C (I 0) (Figure 3B). The γ values were close to 1 at each V m. In contrast, K i decreased as the V m was increased (Figure 3C). […] Thus, A9C appeared to block TMEM16A channels according to a Woodhull mechanism, consistent with a single A9C molecule blocking the channel pore.
The K i at various V m can also be estimated from analysis of the time‐course of current inhibition at various V m (see Supporting Information for details). K i estimated from this analysis were plotted against the V m in Figure 3C (open symbols). It is clear that K i estimated in this way is similar to the K i estimated from the Hill fit of the dose–response curves (filled symbols). […]
SUPPLEMENTARY INFORMATION
TMEM16A currents were measured with the whole-cell or inside-out configuration of
the patch-clamp technique using an Axon 200B amplifier (Molecular Devices, USA)
controlled with GE-pulse software (http://users.ge.ibf.cnr.it/pusch/programs-mik.htm).
Currents were filtered at 2-5 kHz and sampled at 10 kHz, unless stated otherwise.
Pipettes were prepared from borosilicate glass capillary tubes (Harvard Apparatus,
USA) using a Narishige PC-10 pipette puller (Narishige, Japan). Pipette tip diameter
yielded a resistance of 2.2 to 2.8 MΩ in the working solutions. The bath was grounded
through a 3 M KCl agar bridge connected to a Ag-AgCl reference electrode. In whole-
cell recordings, the series resistance was usually compensated by ≥70 % to achieve a
maximal effective series resistance generally lower than ~5 MΩ. To allow for
equilibration of the pipette solution with the cell interior, recordings started 5 min after
establishing the whole-cell configuration (Manoury, Tamuleviciute & Tammaro, 2010).
Experiments were conducted at 20-22 °C. The cell capacitance was assessed by
measuring the area beneath a capacitive transient elicited by a 10 mV step or via the
cell capacity compensation circuit of the amplifier.
Estimation of Ki at various Vm using the Langmuir formalism
Detailed kinetic analysis of TMEM16A channel activity is likely to require complex
models to account for the effects of Ca2+ and voltage on channel gating (Hartzell,
Putzier & Arreola, 2005). However, a simplified two-state kinetic scheme may be
applicable in conditions in which high [Ca2+]i is maintained to maximally activate the
TMEM16A channel. Under these conditions, and assuming that a molecule of A9C
binding into the pore of a TMEM16A channel results in the complete block of Cl- fluxes,
the Langmuir formalism applies:
Where O represents the conductive state and OB(A9C) is the A9C-blocked state. kon and
koff are the association and dissociation constant, respectively and Ki = koff/kon is the
apparent equilibrium dissociation constant.
The scheme (I) refers to the following differential equations: […]
(1 picture or pasted object on this page, not shown here)
Where O and OB(A9C) describe the probability of being open (unliganded) or blocked,
Thus, in the presence of a fixed [A9C]ext, when the Vm is stepped to a defined test-pulse
Where O∞ is the value of O(t) at the steady state and O(0) is the value of O(t) at the
beginning of the test pulse while τB is the time constant.
fitted with supplementary equation 3 and the resulting τB-1 plotted versus [A9C]ext
(Suppl. Fig.2). Supplementary equation 5 was used to fit the τB-1 obtained at a given Vm, […]

koff (Vm 20 mV): 94 ± 5 s⁻¹ | Ki (Vm 20 mV): 168 µM | koff (Vm 40 mV): 71 ± 9 s⁻¹ | Ki (Vm 40 mV): 104 µM | koff (Vm 60 mV): 49 ± 13 s⁻¹ | Ki (Vm 60 mV): 62 µM | koff (Vm 80 mV): 34 ± 9 s⁻¹ | Ki (Vm 80 mV): 38 µM | koff (Vm 100 mV): 12 ± 25 s⁻¹ | Ki (Vm 100 mV): 12 µM | koff (Vm 120 mV): 21 ± 17 s⁻¹ | Ki (Vm 120 mV): 19 µM
SMILES: O=C(O)c1c2ccccc2cc2ccccc12 [A9C, Anthracene‐9‐carboxylic acid]
